Laboratory results taken from patent US10294202B2, “Pyrrolidinones as herbicides” (FMC Corporation, priority 2013, dated 2019).
Like-named read-outs stand apart in the source and are kept apart here.

Legend:
wheat = test: Test A pre-/postemergence herbicide test; assay type: in vivo, Triticum aestivum; conditions: for Wheat plant response rating: Preemergence, visual rating on 0 to 100 scale (0 no effect, 100 complete control)
Outline: (§1)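 Seeds in loam–sand blend received preemergence directed soil spray; separately, plants 2–10 cm at one- to two-leaf stage received postemergence spray, both with test chemicals in non-phytotoxic solvent with surfactant. After ~10 days in greenhouse, injury rated visually against untreated controls, 0 (no effect) to 100 (complete control).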

sedge, umbrella = test: Test B flooded paddy test; assay type: in vivo, Cyperus difformis; conditions: 250 g ai/ha, Flood; scale of 0 to 100 where 0 is no effect and 100 is complete control
Outline: (§2)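 Plants grown to 2-leaf stage; pots flooded 3 cm above soil and compound applied directly into paddy water, depth held throughout. Visual rating against untreated controls after 13 to 15 days in greenhouse, 0 (no effect) to 100 (complete control).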

barnyardgrass [1] = test: Test B flooded paddy test; assay type: in vivo, Echinochloa crus-galli; conditions: 250 g ai/ha, Flood; scale of 0 to 100 where 0 is no effect and 100 is complete control
Outline: as §2

ducksalad = test: Test B flooded paddy test; assay type: in vivo, Heteranthera limosa; conditions: 250 g ai/ha, Flood; scale of 0 to 100 where 0 is no effect and 100 is complete control
Outline: as §2

barnyardgrass [2] = test: Test A pre-/postemergence herbicide test; assay type: in vivo, Echinochloa crus-galli; conditions: for Barnyardgrass plant response rating: Preemergence, visual rating on 0 to 100 scale (0 no effect, 100 complete control)
Outline: as §1

giant foxtail = test: Test A pre-/postemergence herbicide test; assay type: in vivo, Setaria faberii; conditions: for Foxtail, Giant plant response rating: Preemergence, visual rating on 0 to 100 scale (0 no effect, 100 complete control)
Outline: as §1

crabgrass, large = test: Test A pre-/postemergence herbicide test; assay type: in vivo, Digitaria sanguinalis; conditions: for Crabgrass, Large plant response rating: Preemergence, visual rating on 0 to 100 scale (0 no effect, 100 complete control)
Outline: as §1

rice = test: Test B flooded paddy test; assay type: in vivo, Oryza sativa; conditions: 250 g ai/ha, Flood; scale of 0 to 100 where 0 is no effect and 100 is complete control
Procedure: Plant species in the flooded paddy test selected from rice (Oryza sativa), sedge, umbrella (small-flower umbrella sedge, Cyperus difformis), ducksalad (Heteranthera limosa), and barnyardgrass (Echinochloa crus-galli) were grown to the 2-leaf stage for testing. At time of treatment, test pots were flooded to 3 cm above the soil surface, treated by application of test compounds directly to the paddy water, and then maintained at that water depth for the duration of the test. Treated plants and controls were maintained in a greenhouse for 13 to 15 days, after which time all species were compared to controls and visually evaluated. Plant response ratings, summarized in Table B, are based on a scale of 0 to 100 where 0 is no effect and 100 is complete control. A dash (-) response means no test result.

pigweed = test: Test A pre-/postemergence herbicide test; assay type: in vivo, Amaranthus retroflexus; conditions: for Pigweed plant response rating: Preemergence, visual rating on 0 to 100 scale (0 no effect, 100 complete control)
Outline: as §1

morningglory = test: Test A pre-/postemergence herbicide test; assay type: in vivo, Ipomoea spp.; conditions: for Morningglory plant response rating: Preemergence, visual rating on 0 to 100 scale (0 no effect, 100 complete control)
Outline: as §1

corn = test: Test A pre-/postemergence herbicide test; assay type: in vivo, Zea mays; conditions: for Corn plant response rating: Preemergence, visual rating on 0 to 100 scale (0 no effect, 100 complete control)
Outline: as §1

velvetleaf = test: Test A pre-/postemergence herbicide test; assay type: in vivo, Abutilon theophrasti; conditions: for Velvetleaf plant response rating: Preemergence, visual rating on 0 to 100 scale (0 no effect, 100 complete control)
Outline: as §1

[3] = Postemergence, 125 g ai/ha, 0 to 100 scale, 0 no effect, 100 complete control
[4] = Postemergence, 500 g ai/ha, 0 to 100 scale (0 no effect, 100 complete control)
[5] = preemergence, 500 g ai/ha, 0 to 100 scale
[6] = preemergence, 500 g ai/ha, 0 to 100 scale (0 no effect, 100 complete control)

O=C1NCC(c2ccc(F)c(Cl)c2)C1C(=O)Nc1ccccc1C(F)(F)F (stereo not shown) [Compound 74, 4-(3-chloro-4-fluorophenyl)-2-oxo-N-[2-(trifluoromethyl)phenyl]-3-pyrrolidinecarboxamide]
Wheat plant response rating (wheat; 125 g ai/ha): 0 | plant injury at 125 g/ha (wheat; Triticum aestivum, post-emergence, 240 h, Postemergence, 125 g ai/ha, 0 to 100 scale, 0 no effect, 100 complete control, read-out: Plant response rating, Wheat): 0% | plant injury at 500 g/ha (wheat; Triticum aestivum, post-emergence, 240 h, Postemergence, 500 g ai/ha, 0 to 100 scale (0 no effect, 100 complete control), read-out: Plant response rating, Wheat): 60% | plant injury at 500 g/ha (wheat; Triticum aestivum, pre-emergence, 240 h, preemergence, 500 g ai/ha, 0 to 100 scale, read-out: Plant response rating, Wheat): 0% | Plant response rating, Sedge, Umbrella (sedge, umbrella): 0 | Plant response rating, Barnyardgrass (barnyardgrass [1]): 0 | Plant response rating, Ducksalad (ducksalad): 90 | pest or weed control at 125 g/ha (barnyardgrass [2]; Echinochloa crus-galli, post-emergence, 240 h, Postemergence, 125 g ai/ha, 0 to 100 scale, 0 no effect, 100 complete control, read-out: Plant response rating, Barnyardgrass): 60% | pest or weed control at 500 g/ha (barnyardgrass [2]; Echinochloa crus-galli, post-emergence, 240 h, Postemergence, 500 g ai/ha, 0 to 100 scale (0 no effect, 100 complete control), read-out: Plant response rating, Barnyardgrass): 80% | pest or weed control at 500 g/ha (barnyardgrass [2]; Echinochloa crus-galli, pre-emergence, 240 h, preemergence, 500 g ai/ha, 0 to 100 scale (0 no effect, 100 complete control), read-out: Plant response rating, Barnyardgrass): 90% | Barnyardgrass plant response rating (barnyardgrass [2]; 125 g ai/ha): 60 | Foxtail, Giant plant response rating (giant foxtail; 125 g ai/ha): 90 | pest or weed control at 125 g/ha (giant foxtail; Setaria faberi, post-emergence, 240 h, Postemergence, 125 g ai/ha, 0 to 100 scale, 0 no effect, 100 complete control, read-out: Plant response rating, Foxtail, Giant): 80% | pest or weed control at 500 g/ha (giant foxtail; Setaria faberi, post-emergence, 240 h, Postemergence, 500 g ai/ha, 0 to 100 scale (0 no effect, 100 complete control), read-out: Plant response rating, Foxtail, Giant): 90% | pest or weed control at 500 g/ha (giant foxtail; Setaria faberi, pre-emergence, 240 h, preemergence, 500 g ai/ha, 0 to 100 scale, read-out: Plant response rating, Foxtail, Giant): 90% | pest or weed control at 125 g/ha (crabgrass, large; Digitaria sanguinalis, post-emergence, 240 h, Postemergence, 125 g ai/ha, 0 to 100 scale, 0 no effect, 100 complete control, read-out: Plant response rating, Crabgrass, Large): 80% | pest or weed control at 500 g/ha (crabgrass, large; Digitaria sanguinalis, post-emergence, 240 h, Postemergence, 500 g ai/ha, 0 to 100 scale (0 no effect, 100 complete control), read-out: Plant response rating, Crabgrass, Large): 90% | pest or weed control at 500 g/ha (crabgrass, large; Digitaria sanguinalis, pre-emergence, 240 h, preemergence, 500 g ai/ha, 0 to 100 scale, read-out: Plant response rating, Crabgrass, Large): 90% | Crabgrass, Large plant response rating (crabgrass, large; 125 g ai/ha): 90 | Plant response rating, Rice (rice): 0 | pest or weed control at 125 g/ha (pigweed; Amaranthus retroflexus, post-emergence, 240 h, Postemergence, 125 g ai/ha, 0 to 100 scale, 0 no effect, 100 complete control, read-out: Plant response rating, Pigweed): 0% | pest or weed control at 500 g/ha (pigweed; Amaranthus retroflexus, post-emergence, 240 h, Postemergence, 500 g ai/ha, 0 to 100 scale (0 no effect, 100 complete control), read-out: Plant response rating, Pigweed): 0% | pest or weed control at 500 g/ha (pigweed; Amaranthus retroflexus, pre-emergence, 240 h, preemergence, 500 g ai/ha, 0 to 100 scale, read-out: Plant response rating, Pigweed): 50% | Pigweed plant response rating (pigweed; 125 g ai/ha): 0 | pest or weed control at 125 g/ha (morningglory; Ipomoea, post-emergence, 240 h, Postemergence, 125 g ai/ha, 0 to 100 scale, 0 no effect, 100 complete control, read-out: Plant response rating, Morningglory): 0% | pest or weed control at 500 g/ha (morningglory; Ipomoea, post-emergence, 240 h, Postemergence, 500 g ai/ha, 0 to 100 scale (0 no effect, 100 complete control), read-out: Plant response rating, Morningglory): 0% | pest or weed control at 500 g/ha (morningglory; Ipomoea, pre-emergence, 240 h, preemergence, 500 g ai/ha, 0 to 100 scale, read-out: Plant response rating, Morningglory): 0% | Morningglory plant response rating (morningglory; 125 g ai/ha): 0 | Corn plant response rating (corn; 125 g ai/ha): 0 | Corn plant response rating (crop injury, 0 = no effect, 100 = complete kill) at 125 g/ha (corn; Zea mays, post-emergence, 240 h, Postemergence, 125 g ai/ha, 0 to 100 scale, 0 no effect, 100 complete control): 0% | Corn plant response rating (crop injury, 0 = no effect, 100 = complete kill) at 500 g/ha (corn; Zea mays, post-emergence, 240 h, Postemergence, 500 g ai/ha, 0 to 100 scale (0 no effect, 100 complete control)): 50% | Corn plant response rating (crop injury, 0 = no effect, 100 = complete kill) at 500 g/ha (corn; Zea mays, pre-emergence, 240 h, preemergence, 500 g ai/ha, 0 to 100 scale): 0% | pest or weed control at 125 g/ha (velvetleaf; Abutilon theophrasti, post-emergence, 240 h, Postemergence, 125 g ai/ha, 0 to 100 scale, 0 no effect, 100 complete control, read-out: Plant response rating, Velvetleaf): 30% | pest or weed control at 500 g/ha (velvetleaf; Abutilon theophrasti, post-emergence, 240 h, Postemergence, 500 g ai/ha, 0 to 100 scale (0 no effect, 100 complete control), read-out: Plant response rating, Velvetleaf): 50% | pest or weed control at 500 g/ha (velvetleaf; Abutilon theophrasti, pre-emergence, 240 h, preemergence, 500 g ai/ha, 0 to 100 scale, read-out: Plant response rating, Velvetleaf): 0% | Velvetleaf plant response rating (velvetleaf; 125 g ai/ha): 0

O=C1NCC(c2ccc(Cl)nc2)C1C(=O)Nc1ccccc1C(F)(F)F (stereo not shown) [Compound 42]
Plant response rating, Wheat (wheat; [3]): 0 | Plant response rating, Wheat (wheat; [4]): 0 | Wheat plant response rating (wheat; 125 g ai/ha): 0 | Plant response rating, Wheat (wheat; [5]): 0 | Plant response rating, Sedge, Umbrella (sedge, umbrella): 0 | Plant response rating, Barnyardgrass (barnyardgrass [1]): 0 | Plant response rating, Ducksalad (ducksalad): 60 | Plant response rating, Barnyardgrass (barnyardgrass [2]; [3]): 0 | Plant response rating, Barnyardgrass (barnyardgrass [2]; [4]): 40 | Barnyardgrass plant response rating (barnyardgrass [2]; 125 g ai/ha): 0 | Plant response rating, Barnyardgrass (barnyardgrass [2]; [6]): 60 | Plant response rating, Foxtail, Giant (giant foxtail; [3]): 0 | Plant response rating, Foxtail, Giant (giant foxtail; [4]): 20 | Foxtail, Giant plant response rating (giant foxtail; 125 g ai/ha): 20 | Plant response rating, Foxtail, Giant (giant foxtail; [5]): 80 | Plant response rating, Crabgrass, Large (crabgrass, large; [3]): 0 | Plant response rating, Crabgrass, Large (crabgrass, large; [4]): 70 | Crabgrass, Large plant response rating (crabgrass, large; 125 g ai/ha): 80 | Plant response rating, Crabgrass, Large (crabgrass, large; [5]): 90 | Plant response rating, Rice (rice): 0 | Plant response rating, Pigweed (pigweed; [3]): 0 | Plant response rating, Pigweed (pigweed; [4]): 0 | Pigweed plant response rating (pigweed; 125 g ai/ha): 0 | Plant response rating, Pigweed (pigweed; [5]): 30 | Plant response rating, Morningglory (morningglory; [3]): 0 | Plant response rating, Morningglory (morningglory; [4]): 0 | Plant response rating, Corn (corn; [3]): 0 | Plant response rating, Corn (corn; [4]): 0 | Corn plant response rating (corn; 125 g ai/ha): 0 | Plant response rating, Corn (corn; [5]): 0 | Plant response rating, Velvetleaf (velvetleaf; [3]): 30 | Plant response rating, Velvetleaf (velvetleaf; [4]): 50 | Velvetleaf plant response rating (velvetleaf; 125 g ai/ha): 0 | Plant response rating, Velvetleaf (velvetleaf; [5]): 0

O=C1NCC(c2ccccc2)C1C(=O)Nc1cccc(F)c1F (stereo not shown) [Compound 65]
Plant response rating, Wheat (wheat; [3]): 0 | Plant response rating, Wheat (wheat; [4]): 20 | Wheat plant response rating (wheat; 125 g ai/ha): 0 | Plant response rating, Wheat (wheat; [5]): 0 | Plant response rating, Sedge, Umbrella (sedge, umbrella): 40 | Plant response rating, Barnyardgrass (barnyardgrass [1]): 0 | Plant response rating, Ducksalad (ducksalad): 80 | Plant response rating, Barnyardgrass (barnyardgrass [2]; [3]): 20 | Plant response rating, Barnyardgrass (barnyardgrass [2]; [4]): 70 | Barnyardgrass plant response rating (barnyardgrass [2]; 125 g ai/ha): 40 | Plant response rating, Barnyardgrass (barnyardgrass [2]; [6]): 90 | Plant response rating, Foxtail, Giant (giant foxtail; [3]): 50 | Plant response rating, Foxtail, Giant (giant foxtail; [4]): 90 | Foxtail, Giant plant response rating (giant foxtail; 125 g ai/ha): 80 | Plant response rating, Foxtail, Giant (giant foxtail; [5]): 90 | Plant response rating, Crabgrass, Large (crabgrass, large; [3]): 90 | Plant response rating, Crabgrass, Large (crabgrass, large; [4]): 90 | Crabgrass, Large plant response rating (crabgrass, large; 125 g ai/ha): 90 | Plant response rating, Crabgrass, Large (crabgrass, large; [5]): 90 | Plant response rating, Rice (rice): 0 | Plant response rating, Pigweed (pigweed; [3]): 0 | Plant response rating, Pigweed (pigweed; [4]): 0 | Pigweed plant response rating (pigweed; 125 g ai/ha): 0 | Plant response rating, Pigweed (pigweed; [5]): 0 | Plant response rating, Morningglory (morningglory; [3]): 0 | Plant response rating, Morningglory (morningglory; [4]): 20 | Morningglory plant response rating (morningglory; 125 g ai/ha): 0 | Plant response rating, Morningglory (morningglory; [5]): 0 | Plant response rating, Corn (corn; [3]): 0 | Plant response rating, Corn (corn; [4]): 20 | Corn plant response rating (corn; 125 g ai/ha): 0 | Plant response rating, Corn (corn; [5]): 0 | Plant response rating, Velvetleaf (velvetleaf; [3]): 0 | Plant response rating, Velvetleaf (velvetleaf; [4]): 30 | Velvetleaf plant response rating (velvetleaf; 125 g ai/ha): 0 | Plant response rating, Velvetleaf (velvetleaf; [5]): 0
